Measurements: the NIST ThermoML archive (doi:10.1021/acs.jced.9b00540)
± gives the expanded uncertainty stated by the source.

Experiments:
[1] = Liquid, Falling or rolling sphere viscometry
[2] = xn = mol fraction of the nth substance listed; details: Liquid, x2 = 0

SMILES: CCOC(F)(C(F)(F)C(F)(F)C(F)(F)F)C(F)(C(F)(F)F)C(F)(F)F (stereo not given) [2-trifluoromethyl-3-ethoxydodecafluorohexane]
- viscosity ([1]; 293.15 K, 100 kPa): 1.369 ± 0.031 mPa·s
- viscosity ([1]; 293.15 K, 20000 kPa): 1.894 ± 0.043 mPa·s
- viscosity ([1]; 293.15 K, 40000 kPa): 2.645 ± 0.059 mPa·s
- viscosity ([1]; 293.15 K, 60000 kPa): 3.622 ± 0.081 mPa·s
- viscosity ([1]; 293.15 K, 80000 kPa): 4.894 ± 0.11 mPa·s
- viscosity ([1]; 293.15 K, 100000 kPa): 6.553 ± 0.14 mPa·s
- viscosity ([1]; 313.15 K, 100 kPa): 0.983 ± 0.022 mPa·s
- viscosity ([1]; 313.15 K, 20000 kPa): 1.356 ± 0.03 mPa·s
- viscosity ([1]; 313.15 K, 40000 kPa): 1.869 ± 0.042 mPa·s
- viscosity ([1]; 313.15 K, 60000 kPa): 2.51 ± 0.056 mPa·s
- viscosity ([1]; 313.15 K, 80000 kPa): 3.31 ± 0.073 mPa·s
- viscosity ([1]; 313.15 K, 100000 kPa): 4.307 ± 0.096 mPa·s
- viscosity ([1]; 333.15 K, 100 kPa): 0.739 ± 0.017 mPa·s
- viscosity ([1]; 333.15 K, 20000 kPa): 1.032 ± 0.023 mPa·s
- viscosity ([1]; 333.15 K, 40000 kPa): 1.41 ± 0.031 mPa·s
- viscosity ([1]; 333.15 K, 60000 kPa): 1.87 ± 0.041 mPa·s
- viscosity ([1]; 333.15 K, 80000 kPa): 2.427 ± 0.053 mPa·s
- viscosity ([1]; 333.15 K, 100000 kPa): 3.105 ± 0.068 mPa·s
- viscosity ([1]; 353.15 K, 100 kPa): 0.576 ± 0.013 mPa·s
- viscosity ([1]; 353.15 K, 20000 kPa): 0.799 ± 0.018 mPa·s
- viscosity ([1]; 353.15 K, 40000 kPa): 1.084 ± 0.024 mPa·s
- viscosity ([1]; 353.15 K, 60000 kPa): 1.418 ± 0.031 mPa·s
- viscosity ([1]; 353.15 K, 80000 kPa): 1.808 ± 0.04 mPa·s
- viscosity ([1]; 353.15 K, 100000 kPa): 2.265 ± 0.049 mPa·s

SMILES: CC(C)OC(C)C [diisopropyl ether] + CCOC(F)(C(F)(F)C(F)(F)C(F)(F)F)C(F)(C(F)(F)F)C(F)(F)F
- viscosity ([2]; 293.15 K, 100 kPa, Capillary tube (Ostwald / Ubbelohde) method): 0.33 ± 0.007 mPa·s
- viscosity ([2]; 293.15 K, 20000 kPa, Falling or rolling sphere viscometry): 0.396 ± 0.009 mPa·s
- viscosity ([2]; 293.15 K, 40000 kPa, Falling or rolling sphere viscometry): 0.466 ± 0.01 mPa·s
- viscosity ([2]; 293.15 K, 60000 kPa, Falling or rolling sphere viscometry): 0.542 ± 0.012 mPa·s
- viscosity ([2]; 293.15 K, 80000 kPa, Falling or rolling sphere viscometry): 0.625 ± 0.014 mPa·s
- viscosity ([2]; 293.15 K, 100000 kPa, Falling or rolling sphere viscometry): 0.715 ± 0.015 mPa·s
- viscosity ([2]; 313.15 K, 100 kPa, Capillary tube (Ostwald / Ubbelohde) method): 0.27 ± 0.006 mPa·s
- viscosity ([2]; 313.15 K, 20000 kPa, Falling or rolling sphere viscometry): 0.332 ± 0.007 mPa·s
- viscosity ([2]; 313.15 K, 40000 kPa, Falling or rolling sphere viscometry): 0.392 ± 0.009 mPa·s
- viscosity ([2]; 313.15 K, 60000 kPa, Falling or rolling sphere viscometry): 0.454 ± 0.01 mPa·s
- viscosity ([2]; 313.15 K, 80000 kPa, Falling or rolling sphere viscometry): 0.52 ± 0.011 mPa·s
- viscosity ([2]; 313.15 K, 100000 kPa, Falling or rolling sphere viscometry): 0.588 ± 0.013 mPa·s
- viscosity ([2]; 333.15 K, 100 kPa, Capillary tube (Ostwald / Ubbelohde) method): 0.225 ± 0.005 mPa·s
- viscosity ([2]; 333.15 K, 20000 kPa, Falling or rolling sphere viscometry): 0.282 ± 0.006 mPa·s
- viscosity ([2]; 333.15 K, 40000 kPa, Falling or rolling sphere viscometry): 0.342 ± 0.007 mPa·s
- viscosity ([2]; 333.15 K, 60000 kPa, Falling or rolling sphere viscometry): 0.402 ± 0.009 mPa·s
- viscosity ([2]; 333.15 K, 80000 kPa, Falling or rolling sphere viscometry): 0.46 ± 0.01 mPa·s
- viscosity ([2]; 333.15 K, 100000 kPa, Falling or rolling sphere viscometry): 0.517 ± 0.011 mPa·s
- viscosity ([2]; 353.15 K, 20000 kPa, Falling or rolling sphere viscometry): 0.258 ± 0.006 mPa·s
- viscosity ([2]; 353.15 K, 40000 kPa, Falling or rolling sphere viscometry): 0.308 ± 0.007 mPa·s
- viscosity ([2]; 353.15 K, 60000 kPa, Falling or rolling sphere viscometry): 0.358 ± 0.008 mPa·s
- viscosity ([2]; 353.15 K, 80000 kPa, Falling or rolling sphere viscometry): 0.408 ± 0.009 mPa·s
- viscosity ([2]; 353.15 K, 100000 kPa, Falling or rolling sphere viscometry): 0.457 ± 0.01 mPa·s

SMILES: CC(C)OC(C)C [diisopropyl ether]
- viscosity ([1]; 293.15 K, 100 kPa): 0.33 ± 0.007 mPa·s
- viscosity ([1]; 293.15 K, 20000 kPa): 0.396 ± 0.009 mPa·s
- viscosity ([1]; 293.15 K, 40000 kPa): 0.466 ± 0.01 mPa·s
- viscosity ([1]; 293.15 K, 60000 kPa): 0.542 ± 0.012 mPa·s
- viscosity ([1]; 293.15 K, 80000 kPa): 0.625 ± 0.014 mPa·s
- viscosity ([1]; 293.15 K, 100000 kPa): 0.715 ± 0.015 mPa·s
- viscosity ([1]; 313.15 K, 100 kPa): 0.27 ± 0.006 mPa·s
- viscosity ([1]; 313.15 K, 20000 kPa): 0.332 ± 0.007 mPa·s
- viscosity ([1]; 313.15 K, 40000 kPa): 0.392 ± 0.009 mPa·s
- viscosity ([1]; 313.15 K, 60000 kPa): 0.454 ± 0.01 mPa·s
- viscosity ([1]; 313.15 K, 80000 kPa): 0.52 ± 0.011 mPa·s
- viscosity ([1]; 313.15 K, 100000 kPa): 0.588 ± 0.013 mPa·s
- viscosity ([1]; 333.15 K, 100 kPa): 0.225 ± 0.005 mPa·s
- viscosity ([1]; 333.15 K, 20000 kPa): 0.282 ± 0.006 mPa·s
- viscosity ([1]; 333.15 K, 40000 kPa): 0.342 ± 0.007 mPa·s
- viscosity ([1]; 333.15 K, 60000 kPa): 0.402 ± 0.009 mPa·s
- viscosity ([1]; 333.15 K, 80000 kPa): 0.46 ± 0.01 mPa·s
- viscosity ([1]; 333.15 K, 100000 kPa): 0.517 ± 0.011 mPa·s
- viscosity ([1]; 353.15 K, 20000 kPa): 0.258 ± 0.006 mPa·s
- viscosity ([1]; 353.15 K, 40000 kPa): 0.308 ± 0.007 mPa·s
- viscosity ([1]; 353.15 K, 60000 kPa): 0.358 ± 0.008 mPa·s
- viscosity ([1]; 353.15 K, 80000 kPa): 0.408 ± 0.009 mPa·s
- viscosity ([1]; 353.15 K, 100000 kPa): 0.457 ± 0.01 mPa·s
